Experiment [1] deals with control cell lines (HACAT, HEK293T, CRL-7250, NIH-3T3). The experiment is described as follows: qHTS cell viability, control cell lines as a group (mean AUC, Control.avg). In kind it is cell-based. (qHTS replaces the single test concentration by a dilution series.)
Experiment [2] concerns MCC cell lines (WAGA, MKL-1, MKL-2, MCC13, MCC26, UISO). The experiment is described as follows: qHTS cell viability, all six MCC cell lines as a group (mean AUC, MCC.avg). The class given is cell-based, human.
Experiment [3] concerns HEK293T cells. Put plainly: qHTS cell viability (CellTiter-Glo, 72 h; primary screen), control cell line. In kind it is cell-based, human.
The test system of experiment [4] is VP-MCC cell lines (WAGA, MKL-1, MKL-2). Put plainly: qHTS cell viability, VP-MCC cell lines as a group (mean AUC, VP.MCC.avg). In kind it is cell-based, human.
The subject of experiment [5] is CRL-7250 cells. The experiment is described as follows: qHTS cell viability (CellTiter-Glo, 72 h; primary screen), control cell line. In kind it is cell-based.
Experiment [6] concerns MKL-1 cells (VP-MCC). The experiment is described as follows: qHTS cell viability (CellTiter-Glo, 72 h; primary and follow-up small molecule screen). In kind it is cell-based, human.
Experiment [7] deals with HACAT cells. The experiment is described as follows: qHTS cell viability (CellTiter-Glo, 72 h; primary screen), control cell line. In kind it is cell-based, human.
In experiment [8] the test system is NIH-3T3 cells. Described as above. In kind it is cell-based, mouse.
In experiment [9] the test system is VN-MCC cell lines (MCC13, MCC26, UISO). The experiment is described as follows: qHTS cell viability, VN-MCC cell lines as a group (mean AUC, VN.MCC.avg). In kind it is cell-based, human.
The test system of experiment [10] is MCC13 cells (VN-MCC). The experiment is described as follows: qHTS cell viability (CellTiter-Glo, 72 h; primary and follow-up small molecule screen). The class given is cell-based, human.
In experiment [11] the test system is UISO cells (VN-MCC). The description is as above. The class given is cell-based, human.
The subject of experiment [12] is MCC26 cells (VN-MCC). The experiment is described as above. In kind it is cell-based, human.
For experiment [13], the system named is WAGA cells (VP-MCC). The experiment is described as above. In kind it is cell-based, human.
Experiment [14] relates to MKL-2 cells (VP-MCC). The description is as above. In kind it is cell-based, human.
For experiment [15], the system named is six MCC cell lines and four control cell lines. The experiment is described as follows: qHTS cell viability, all 10 cell lines screened. The class given is cell-based.
[16] abbreviates: NPC library, mean AUC of control cell lines.
Where [17] appears, read: NPC library, mean AUC of six MCC cell lines.
[18] abbreviates: NPC library, qHTS dose-response AUC, HEK293T control.
Setting [19] is: NPC library, mean AUC of VP-MCC cell lines.
Setting [20] is: NPC library, therapeutic window: Control avg AUC minus VP-MCC avg AUC.
Setting [21] is: NPC library, qHTS dose-response AUC, CRL7250 control.
[22] abbreviates: NPC library, qHTS dose-response AUC, MKL1.
Setting [23] is: NPC library, qHTS dose-response AUC, HACAT control.
The mark [24] stands for this setting: NPC library, qHTS dose-response AUC, NIH3T3 control.
Setting [25] is: NPC library, mean AUC of VN-MCC cell lines.
[26] abbreviates: NPC library, therapeutic window: Control avg AUC minus VN-MCC avg AUC.
Where [27] appears, read: NPC library, qHTS dose-response AUC, MCC13.
Setting [28] is: NPC library, qHTS dose-response AUC, UISO.
The mark [29] stands for this setting: NPC library, qHTS dose-response AUC, MCC26.
Setting [30] is: NPC library, qHTS dose-response AUC, WAGA.
Setting [31] is: NPC library, qHTS dose-response AUC, MKL2.
The mark [32] stands for this setting: NPC library, therapeutic window: Control avg AUC minus MCC avg AUC.

Where “and” joins values, the source holds several entries; their conditions need not be identical. Equal values may be shown once. Where a name gives a salt, the structure may show the parent alone. Read-outs that look alike come from different tables or passages of the source.

In the case of `CCOc1ccc2nc(S(N)(=O)=O)sc2c1` [Ethoxzolamide], in [1] (setting [16]), the Control_Avg_AUC was found to be 474.669. Also, the MCC_Avg_AUC in experiment [2] (setting [17]) was 428.559. Also, the HEK293T_AUC in [3] (setting [18]) came out at 465.047. For the same compound, in [4] (setting [19]), the VP-MCC_Avg_AUC amounted to 411.31. In addition, the Control-VP-MCC in experiment [4] (setting [20]) came out at 63.3587. In experiment [5] (setting [21]), this compound yielded a CRL7250_AUC of 486.514. This compound showed an MKL1_AUC in experiment [6] (setting [22]) of 398.827. The compound further yielded an HACAT_AUC in experiment [7] (setting [23]) of 484.155. The compound also came in with an NIH3T3_AUC in [8] (setting [24]) of 462.958. The compound further had a VN-MCC_Avg_AUC in experiment [9] (setting [25]) of 445.807. In experiment [9] (setting [26]), the Control-VN-MCC is reported as 28.8613. In [10] (setting [27]), the MCC13_AUC is reported as 463.773. The UISO_AUC in experiment [11] (setting [28]) worked out at 429.085. The same compound registered an MCC26_AUC in experiment [12] (setting [29]) of 444.564. The same compound registered a WAGA_AUC in experiment [13] (setting [30]) of 399.58. This compound also returned an MKL2_AUC in experiment [14] (setting [31]) of 435.522. In experiment [15] (setting [32]), this compound came in with a Control-MCC of 46.11.
Consider `CCCCCCCCCCCCCCCC[N+](C)(C)CC` [Ethylhexadecyldimethylammonium bromide], for which the Control_Avg_AUC in experiment [1] (setting [16]) is 359.474. The same compound had an MCC_Avg_AUC in experiment [2] (setting [17]) of 342.577. In addition, the HEK293T_AUC in experiment [3] (setting [18]) worked out at 340.309. For the same compound, the VP-MCC_Avg_AUC in [4] (setting [19]) is 253.156. This compound also came in with a Control-VP-MCC in experiment [4] (setting [20]) of 106.318. For the same compound, in experiment [5] (setting [21]), the CRL7250_AUC is 362.003. This compound also showed an MKL1_AUC in [6] (setting [22]) of 275.727. Also, in experiment [6] (follow-up screen, MKL-1, replicate 1), the “Area under the dose-response curve (AUC) MKL-1 Replicate 1” value stood at 317.9. For the same compound, in experiment [6] (follow-up screen, MKL-1, replicate 2), the “Area under the dose-response curve (AUC) MKL-1 Replicate 2” value came out at 305.9. For the same compound, the “Area under the dose-response curve (AUC) MKL-1 Replicate 3” value in experiment [6] (follow-up screen, MKL-1, replicate 3) stood at 330.7. Further, the HACAT_AUC in experiment [7] (setting [23]) turned out to be 288.244. In addition, in experiment [8] (setting [24]), the NIH3T3_AUC is on record as 447.34. In experiment [9] (setting [25]), this compound returned a VN-MCC_Avg_AUC of 431.999. In addition, the Control-VN-MCC in [9] (setting [26]) is recorded as -72.525. The same compound came in with an MCC13_AUC in [10] (setting [27]) of 452.398. The “Area under the dose-response curve (AUC) MCC13 Replicate 1” value in experiment [10] (follow-up screen, MCC13, replicate 1) is 444.8. Also, the “Area under the dose-response curve (AUC) MCC13 Replicate 2” value in experiment [10] (follow-up screen, MCC13, replicate 2) is reported as 473.1. Besides, the “Area under the dose-response curve (AUC) MCC13 Replicate 3” value in [10] (follow-up screen, MCC13, replicate 3) amounted to 416.6. Also, the UISO_AUC in [11] (setting [28]) was 345.634. The “Area under the dose-response curve (AUC) UISO Replicate 1” value in [11] (follow-up screen, UISO, replicate 1) came out at 324.1. The “Area under the dose-response curve (AUC) UISO Replicate 2” value in experiment [11] (follow-up screen, UISO, replicate 2) was determined as 364.3. Further, the “Area under the dose-response curve (AUC) UISO Replicate 3” value in experiment [11] (follow-up screen, UISO, replicate 3) was 313.9. For the same compound, in experiment [12] (setting [29]), the MCC26_AUC is 497.964. Besides, the “Area under the dose-response curve (AUC) MCC26 Replicate 1” value in experiment [12] (follow-up screen, MCC26, replicate 1) is recorded as 420.1. Besides, the “Area under the dose-response curve (AUC) MCC26 Replicate 2” value in [12] (follow-up screen, MCC26, replicate 2) stood at 377.6. Also, the “Area under the dose-response curve (AUC) MCC26 Replicate 3” value in experiment [12] (follow-up screen, MCC26, replicate 3) is recorded as 430.8. The WAGA_AUC in experiment [13] (setting [30]) was 248.495. Besides, the “Area under the dose-response curve (AUC) WAGA Replicate 1” value in [13] (follow-up screen, WAGA, replicate 1) came out at 383.4. In experiment [13] (follow-up screen, WAGA, replicate 2), the “Area under the dose-response curve (AUC) WAGA Replicate 2” value worked out at 363.0. The “Area under the dose-response curve (AUC) WAGA Replicate 3” value in [13] (follow-up screen, WAGA, replicate 3) was found to be 382.5. The same compound had an MKL2_AUC in experiment [14] (setting [31]) of 235.245. For the same compound, the “Area under the dose-response curve (AUC) MKL-2 Replicate 1” value in experiment [14] (follow-up screen, MKL-2, replicate 1) came to 333.8. Moreover, in [14] (follow-up screen, MKL-2, replicate 2), the “Area under the dose-response curve (AUC) MKL-2 Replicate 2” value is 320.4. The “Area under the dose-response curve (AUC) MKL-2 Replicate 3” value in experiment [14] (follow-up screen, MKL-2, replicate 3) stood at 334.2. In addition, the Control-MCC in experiment [15] (setting [32]) was 16.8967.
In turn, `Cn1c(=O)c2c(ncn2CCO)n(C)c1=O` [Etofylline] displayed a Control_Avg_AUC in experiment [1] (setting [16]) of 463.112. For the same compound, the MCC_Avg_AUC in experiment [2] (setting [17]) was found to be 408.136. Besides, the HEK293T_AUC in experiment [3] (setting [18]) is given as 445.08. Besides, the VP-MCC_Avg_AUC in experiment [4] (setting [19]) worked out at 374.341. The Control-VP-MCC in experiment [4] (setting [20]) turned out to be 88.7707. This compound had a CRL7250_AUC in experiment [5] (setting [21]) of 458.019. This compound came in with an MKL1_AUC in [6] (setting [22]) of 387.045. In experiment [7] (setting [23]), this compound displayed an HACAT_AUC of 491.237. In experiment [8] (setting [24]), this compound registered an NIH3T3_AUC of 458.11. Further, the VN-MCC_Avg_AUC in [9] (setting [25]) stood at 441.93. The Control-VN-MCC in experiment [9] (setting [26]) was found to be 21.1816. The same compound yielded an MCC13_AUC in [10] (setting [27]) of 458.423. Besides, the UISO_AUC in [11] (setting [28]) was 431.565. For the same compound, the MCC26_AUC in experiment [12] (setting [29]) is reported as 435.802. This compound yielded a WAGA_AUC in experiment [13] (setting [30]) of 399.645. In experiment [14] (setting [31]), this compound returned an MKL2_AUC of 336.333. For the same compound, the Control-MCC in experiment [15] (setting [32]) came to 54.9761.
`CC(Cc1ccccc1)NCCn1cnc2c1c(=O)n(C)c(=O)n2C` (centres unmarked) [Fenethylline hydrochloride] came in with a Control_Avg_AUC in experiment [1] of 486.733. Besides, the MCC_Avg_AUC in experiment [2] came out at 429.34. In [3], this compound came in with an HEK293T_AUC of 471.885. Also, in experiment [4], the Control-VP-MCC was found to be 60.9825 and the VP-MCC_Avg_AUC was 425.75. Also, the CRL7250_AUC in experiment [5] is on record as 496.56. For the same compound, in experiment [6], the MKL1_AUC amounted to 406.458. The compound further had an HACAT_AUC in [7] of 497.83. The NIH3T3_AUC in [8] was found to be 480.657. For the same compound, in experiment [9], the Control-VN-MCC was 53.8023; the VN-MCC_Avg_AUC is 432.93 and 432.931. The MCC13_AUC in experiment [10] is reported as 447.432. This compound registered a UISO_AUC in [11] of 437.462. In [12], this compound yielded an MCC26_AUC of 413.898. The compound also returned a WAGA_AUC in [13] of 435.275. The MKL2_AUC in experiment [14] amounted to 435.518. Also, the Control-MCC in [15] is given as 57.3924.

The record behind these values is PMC11822212, “High-throughput screening identifies Aurora kinase B as a critical therapeutic target for Merkel cell carcinoma” (Nature Communications, 2025).
